Three molecules from paper PMC6812009, “Covalent Aurora A regulation by the metabolic integrator coenzyme A” (Redox Biology, 2019) can be followed below.

Common to all, as to assay: Kinase profiling screen (radioactive filter-binding assay)
Type in all cases: biochemical

Assay [1] has as its target PKA (Homo sapiens, UniProt P17612). Particulars: for activity at 100 µM: 100 μM compound, 20 μM ATP, read-out: Kinase activity, % of activity in the absence of inhibitor. The method in brief: (§1)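 Across 117 protein kinases, duplicate in vitro measurements were made with CoA, dpCoA and ADP present at 100 μM final. Each reaction used recombinant kinase, a model substrate and an optimal concentration of ATP.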

Assay [2] concerns the target T1, GCK (Homo sapiens, UniProt Q12851).
T1 sequence (Q12851 1-820): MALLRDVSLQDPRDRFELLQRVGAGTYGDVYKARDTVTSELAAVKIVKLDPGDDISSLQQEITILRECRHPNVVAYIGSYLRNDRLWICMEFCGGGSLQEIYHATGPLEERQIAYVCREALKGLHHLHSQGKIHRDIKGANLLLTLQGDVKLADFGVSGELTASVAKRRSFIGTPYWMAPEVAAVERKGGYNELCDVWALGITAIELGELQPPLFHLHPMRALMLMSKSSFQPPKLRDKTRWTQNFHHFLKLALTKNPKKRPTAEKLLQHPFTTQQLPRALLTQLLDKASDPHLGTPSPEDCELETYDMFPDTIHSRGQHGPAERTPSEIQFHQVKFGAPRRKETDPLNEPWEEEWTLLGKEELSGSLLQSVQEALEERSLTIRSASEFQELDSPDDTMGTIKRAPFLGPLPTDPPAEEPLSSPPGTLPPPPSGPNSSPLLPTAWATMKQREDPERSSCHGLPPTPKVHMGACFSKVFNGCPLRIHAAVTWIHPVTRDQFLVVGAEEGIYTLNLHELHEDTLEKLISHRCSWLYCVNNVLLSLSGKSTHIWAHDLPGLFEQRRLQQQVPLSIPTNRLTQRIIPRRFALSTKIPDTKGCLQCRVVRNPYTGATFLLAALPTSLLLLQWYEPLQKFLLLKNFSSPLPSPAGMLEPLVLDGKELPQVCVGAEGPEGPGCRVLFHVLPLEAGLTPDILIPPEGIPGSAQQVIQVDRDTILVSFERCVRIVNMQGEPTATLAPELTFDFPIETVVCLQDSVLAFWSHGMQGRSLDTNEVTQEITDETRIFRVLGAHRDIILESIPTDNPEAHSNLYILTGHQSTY
Particulars: 100 μM compound, 20 μM ATP; read-out: Kinase activity, % of activity in the absence of inhibitor. The method in brief:
as §1

Assay [3] addresses T2, IKKε (Homo sapiens, UniProt Q14164).
T2 sequence (Q14164 1-716): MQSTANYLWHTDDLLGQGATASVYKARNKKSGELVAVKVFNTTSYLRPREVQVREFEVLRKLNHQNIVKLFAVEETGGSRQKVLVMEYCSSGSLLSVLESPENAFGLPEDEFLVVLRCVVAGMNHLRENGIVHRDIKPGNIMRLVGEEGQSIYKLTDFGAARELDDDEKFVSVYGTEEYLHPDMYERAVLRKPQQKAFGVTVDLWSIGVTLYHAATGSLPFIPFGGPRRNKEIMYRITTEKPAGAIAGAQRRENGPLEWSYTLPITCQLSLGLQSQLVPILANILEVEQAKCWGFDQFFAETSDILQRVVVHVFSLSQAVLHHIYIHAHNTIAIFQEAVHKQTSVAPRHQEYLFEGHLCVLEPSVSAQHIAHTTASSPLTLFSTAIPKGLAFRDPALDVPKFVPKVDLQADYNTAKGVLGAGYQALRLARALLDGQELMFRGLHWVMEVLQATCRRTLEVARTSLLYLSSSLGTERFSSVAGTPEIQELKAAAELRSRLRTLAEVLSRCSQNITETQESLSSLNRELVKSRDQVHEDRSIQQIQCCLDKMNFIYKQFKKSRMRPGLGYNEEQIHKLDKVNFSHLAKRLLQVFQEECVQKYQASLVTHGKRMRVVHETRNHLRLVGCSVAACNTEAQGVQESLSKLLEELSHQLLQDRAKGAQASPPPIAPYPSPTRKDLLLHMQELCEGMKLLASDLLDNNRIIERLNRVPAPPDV
Particulars: 100 μM compound, 50 μM ATP; read-out: Kinase activity, % of activity in the absence of inhibitor. In a few lines: as §1

For assay [4], the target named is T3, NEK2α (Homo sapiens, UniProt P51955).
T3 sequence (P51955 1-445): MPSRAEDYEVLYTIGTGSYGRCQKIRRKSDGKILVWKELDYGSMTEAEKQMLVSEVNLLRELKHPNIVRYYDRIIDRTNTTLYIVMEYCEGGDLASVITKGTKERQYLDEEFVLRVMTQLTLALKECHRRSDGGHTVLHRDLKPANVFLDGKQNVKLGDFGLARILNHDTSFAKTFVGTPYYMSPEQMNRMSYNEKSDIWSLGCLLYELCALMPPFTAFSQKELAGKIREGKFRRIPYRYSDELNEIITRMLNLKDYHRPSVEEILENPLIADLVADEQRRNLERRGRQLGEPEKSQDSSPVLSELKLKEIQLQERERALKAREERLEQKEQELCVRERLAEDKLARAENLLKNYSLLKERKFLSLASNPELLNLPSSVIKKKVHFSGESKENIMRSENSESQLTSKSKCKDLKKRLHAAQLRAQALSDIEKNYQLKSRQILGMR
Particulars: 100 μM compound, 50 μM ATP; read-out: Kinase activity, % of activity in the absence of inhibitor. The method in brief:
as §1

Assay [5] has as its target PAK5 (Homo sapiens, UniProt Q9P286). Particulars: 100 μM compound, 20 μM ATP; read-out: Kinase activity, % of activity in the absence of inhibitor. The method in brief: as §1

Chain of PAK5 (Q9P286 whole entry): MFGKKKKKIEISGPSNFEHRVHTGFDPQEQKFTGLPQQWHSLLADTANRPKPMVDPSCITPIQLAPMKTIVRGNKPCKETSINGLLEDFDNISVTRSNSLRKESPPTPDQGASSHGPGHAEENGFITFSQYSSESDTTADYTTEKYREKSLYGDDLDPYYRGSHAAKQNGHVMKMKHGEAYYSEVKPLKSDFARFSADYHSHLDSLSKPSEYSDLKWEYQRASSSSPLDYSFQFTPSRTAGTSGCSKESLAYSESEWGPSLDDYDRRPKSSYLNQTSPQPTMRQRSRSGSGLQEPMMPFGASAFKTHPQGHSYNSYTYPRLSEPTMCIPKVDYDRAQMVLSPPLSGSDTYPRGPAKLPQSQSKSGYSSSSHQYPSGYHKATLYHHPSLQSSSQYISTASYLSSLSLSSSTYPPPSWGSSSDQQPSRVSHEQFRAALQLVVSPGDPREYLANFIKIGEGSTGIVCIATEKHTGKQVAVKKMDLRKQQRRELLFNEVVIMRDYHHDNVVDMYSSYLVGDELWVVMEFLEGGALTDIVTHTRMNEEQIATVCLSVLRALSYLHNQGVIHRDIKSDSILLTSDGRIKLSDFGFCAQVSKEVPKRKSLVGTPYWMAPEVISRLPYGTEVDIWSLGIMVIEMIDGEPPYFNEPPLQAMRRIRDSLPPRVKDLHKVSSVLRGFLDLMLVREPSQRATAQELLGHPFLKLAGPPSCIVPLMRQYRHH

For `Nc1ncnc2c1ncn2C1OC(COP(=O)(O)OP(=O)(O)O)C(O)C1O` (stereo not shown) [ADP], the activity at 100 µM in assay [1] amounted to 27.8%; in assay [2], 56.5%; in assay [3], 73.8%; in assay [4], 42.1%; in assay [5], 79.5%.
With `CC(C)(COP(=O)(O)OP(=O)(O)OC[C@H]1O[C@@H](n2cnc3c(N)ncnc32)[C@H](O)[C@@H]1OP(=O)(O)O)[C@@H](O)C(=O)NCCC(=O)NCCS` [CoA, Coenzyme A], the activity at 100 µM in assay [1] is 98.9%; in assay [2] it was 109%; in assay [3] it was 125%; in assay [4], 148%; in assay [5], 70.6%. Moreover, in assay [1] (kinase profiling, 100 μM), the “PKA inhibition in vitro” value is “not detected”.
As for `CC(C)(COP(=O)(O)OP(=O)(O)OCC1OC(n2cnc3c(N)ncnc32)C(O)C1O)C(O)C(=O)NCCC(=O)NCCS` (stereo not shown) [dpCoA, dephospho-CoA], the activity at 100 µM came out at 81.3% in assay [1]; 71.2% in assay [2]; 91.4% in assay [3]; 100% in assay [4]; 86% in assay [5].
